Laboratory results from patent US20230048132A1, “CYCLIN-DEPENDENT KINASE INHIBITORS” (SPV THERAPEUTICS INC., priority 2018, published 2023).
pIC50: −log10 of the molar value. Read-outs that look alike come from different tables or passages of the source.

Assays:
CDK6-CYCLIND3 = target: T1, CDK6-CYCLIND3 (Homo sapiens, UniProt Q00534); test: CDK inhibition assay (microfluidic LabChip, IC50 format); assay type: biochemical
T1 construct: purchased Carna

CDK4-CYCLIND1 = CDK4-CYCLIND1 (Homo sapiens, UniProt P11802); test: as above
[1] = Table 4b, upper part, read-out: CDK6 IC50
[2] = CDK4 IC50, Table 4b, upper part
[3] = Table 4b, lower part, read-out: CDK6 CyclinD3 IC50
[4] = CDK4 CyclinD1 IC50, Table 4b, lower part, a second value in parentheses for some compounds

T1 sequence (Q00534 whole entry): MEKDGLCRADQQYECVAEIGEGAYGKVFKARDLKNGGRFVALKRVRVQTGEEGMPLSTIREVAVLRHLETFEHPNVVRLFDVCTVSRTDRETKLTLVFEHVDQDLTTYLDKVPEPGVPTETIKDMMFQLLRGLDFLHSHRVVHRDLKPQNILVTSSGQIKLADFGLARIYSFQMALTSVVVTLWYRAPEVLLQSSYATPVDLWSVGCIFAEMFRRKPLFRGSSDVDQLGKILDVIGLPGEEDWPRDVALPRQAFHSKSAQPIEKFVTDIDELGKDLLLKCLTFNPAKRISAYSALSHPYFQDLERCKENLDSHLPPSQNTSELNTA
T1 sequence (P30281 whole entry partner): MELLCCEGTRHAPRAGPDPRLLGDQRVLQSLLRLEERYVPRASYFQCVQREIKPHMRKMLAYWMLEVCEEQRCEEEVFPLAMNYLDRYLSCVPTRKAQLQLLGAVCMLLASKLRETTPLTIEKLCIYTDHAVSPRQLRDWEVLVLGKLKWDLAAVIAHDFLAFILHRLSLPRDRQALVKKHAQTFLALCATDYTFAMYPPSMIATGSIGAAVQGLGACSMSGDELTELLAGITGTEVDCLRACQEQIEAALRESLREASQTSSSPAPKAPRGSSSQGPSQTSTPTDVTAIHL
Sequence of CDK4-CYCLIND1 (P11802 whole entry): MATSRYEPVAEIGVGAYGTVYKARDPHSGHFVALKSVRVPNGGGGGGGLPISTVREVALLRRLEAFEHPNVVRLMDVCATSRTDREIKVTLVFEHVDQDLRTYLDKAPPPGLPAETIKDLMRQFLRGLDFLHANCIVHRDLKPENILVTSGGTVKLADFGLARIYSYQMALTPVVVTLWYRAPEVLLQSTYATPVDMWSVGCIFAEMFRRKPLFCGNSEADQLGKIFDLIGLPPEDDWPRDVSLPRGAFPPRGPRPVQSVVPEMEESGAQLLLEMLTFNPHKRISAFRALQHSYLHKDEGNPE
Sequence of CDK4-CYCLIND1 (P24385 whole entry partner): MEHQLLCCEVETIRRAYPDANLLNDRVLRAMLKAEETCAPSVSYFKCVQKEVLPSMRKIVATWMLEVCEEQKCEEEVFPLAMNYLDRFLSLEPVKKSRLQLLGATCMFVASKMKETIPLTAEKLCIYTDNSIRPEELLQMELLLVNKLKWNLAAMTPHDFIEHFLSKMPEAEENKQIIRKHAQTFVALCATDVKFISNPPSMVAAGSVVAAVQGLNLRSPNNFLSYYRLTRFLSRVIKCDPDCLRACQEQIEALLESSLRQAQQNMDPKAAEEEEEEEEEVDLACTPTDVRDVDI

SMILES	pIC50 (CDK6-CYCLIND3; [1])	pIC50 (CDK4-CYCLIND1; [2])	pIC50 (CDK6-CYCLIND3; [3])	also measured
CC(C)N1CCN(c2ccc(Nc3ncc4c(n3)N(C3CCCC3)C(=O)[C@]3(CCNC3=O)C4)cn2)CC1 [Example D151, (S)-8-cyclopentyl-2-((6-(4-isopropylpiperazin-1-yl)pyridin-3-yl)amino)-5,8-dihydro-7H-spiro[pyrido[2,3-d]pyrimidine-6,3′-pyrrolidine]-2′,7-dione]			8.55	pIC50 (CDK4-CYCLIND1; [4]): 8.76
O=C1NCC[C@]12Cc1cnc(Nc3ccc(N4CCNCC4)c(F)c3)nc1N(C13CC(C1)C3)C2=O [Example D196, (R)-8-(bicyclo[1.1.1]pentan-1-yl)-2-((3-fluoro-4-(piperazin-1-yl)phenyl)amino)-5,8-dihydro-7H-spiro[pyrido[2,3-d]pyrimidine-6,3′-pyrrolidine]-2′,7-dione]			5.62	pIC50 (CDK4-CYCLIND1; [4]): 5.90
O=C1NCC[C@@]12Cc1cnc(N3CC4(CNC4)C3)nc1N(C1CCCC1)C2=O [Example D198, (S)-8-cyclopentyl-2-(2,6-diazaspiro[3.3]heptan-2-yl)-5,8-dihydro-7H-spiro[pyrido[2,3-d]pyrimidine-6,3′-pyrrolidine]-2′,7-dione]			4.79	
O=C1NCCC12Cc1cnc(Nc3ccc(N4CCC(N5CCOCC5)CC4)c(F)c3)nc1N(C1CCCC1)C2=O (centres unmarked) [Example D38, 8-cyclopentyl-2-((3-fluoro-4-(4-morpholinopiperidin-1-yl)phenyl)amino)-5,8-dihydro-7H-spiro[pyrido[2,3-d]pyrimidine-6,3′-pyrrolidine]-2′,7-dione]	8.15	8.41		
CN1CCN(c2ccc(Nc3ncc4c(n3)N(C3CCCC3)C(=O)C3(CCNC3=O)C4)cc2)CC1 (centres unmarked) [Example D4, 8-cyclopentyl-2-((4-(4-methylpiperazin-1-yl)phenyl)amino)-5,8-dihydro-7H-spiro[pyrido[2,3-d]pyrimidine-6,3′-pyrrolidine]-2′,7-dione]	8.31			

The next lines start with results.

pIC50 (CDK6-CYCLIND3; [1])	pIC50 (CDK4-CYCLIND1; [2])	pIC50 (CDK6-CYCLIND3; [3])	SMILES	also measured
6.70	7.29		CN1C(=O)CC2(Cc3cnc(Nc4ccc(N5CCNCC5)cc4)nc3N(C3CCCC3)C2=O)C1=O (centres unmarked) [Example D20, 8-cyclopentyl-1′-methyl-2-((4-(piperazin-1-yl)phenyl)amino)-5,8-dihydro-7H-spiro[pyrido[2,3-d]pyrimidine-6,3′-pyrrolidine]-2′,5′,7-trione]	
8.26	8.71		CN(C)[C@H]1CCN(C(=O)c2ccc(Nc3ncc4c(n3)N(C3CCCC3)C(=O)C3(CCNC3=O)C4)cc2F)C1 (stereo partly drawn) [Example D48, 8-cyclopentyl-2-((4-((S)-3-(dimethylamino)pyrrolidine-1-carbonyl)-3-fluorophenyl)amino)-5,8-dihydro-7H-spiro[pyrido[2,3-d]pyrimidine-6,3′-pyrrolidine]-2′,7-dione]	
8.09	8.50		COc1cc(Nc2ncc3c(n2)N(C2CCCC2)C(=O)C2(CCNC2=O)C3)ccc1N1CCN(C(C)C)CC1 (centres unmarked) [Example D37, 8-cyclopentyl-2-((4-(4-isopropylpiperazin-1-yl)-3-methoxyphenyl)amino)-5,8-dihydro-7H-spiro[pyrido[2,3-d]pyrimidine-6,3′-pyrrolidine]-2′,7-dione]	
5.84	6.33		CN1C(=O)CC2(Cc3cnc(Nc4ccc(OCCN5CCCC5)c(F)c4)nc3N(C3CCCC3)C2=O)C1=O (centres unmarked) [Example D30, 8-cyclopentyl-2-((3-fluoro-4-(2-(pyrrolidin-1-yl)ethoxy)phenyl)amino)-1′-methyl-5,8-dihydro-7H-spiro[pyrido[2,3-d]pyrimidine-6,3′-pyrrolidine]-2′,5′,7-trione]	
8.36	8.68		O=C1NCCC12Cc1cnc(Nc3ccc(N4CCNCC4)c(F)c3)nc1N(C1CCCC1)C2=O (centres unmarked) [Example D11, 8-cyclopentyl-2-((3-fluoro-4-(piperazin-1-yl)phenyl)amino)-5,8-dihydro-7H-spiro[pyrido[2,3-d]pyrimidine-6,3′-pyrrolidine]-2′,7-dione]	pIC50 (CDK6-CYCLIND3; Table 3, second value of the cell CDK4/CDK6, value of the racemate, read-out: Racemate Activity CDK6): 8.46; pIC50 (CDK4-CYCLIND1; Racemate Activity CDK4, Table 3, first value of the cell CDK4/CDK6, value of the racemate): 8.68
